In one assay the test system is Mino cells. Description: Antiproliferative effect, MTS cell viability assay, Mino cells. The note with it: Homo sapiens, MINO, Mino mantle cell lymphoma cells; read-out: IC50 (anti-proliferation) Mino cells. It counts as cell-based. In short, it runs like this:
(§1)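 MTS read-out, A490 of formazan from metabolically active cells; compound 0–10 μM (0, 0.001, 0.01, 0.1, 1, 10 μM), 72 h exposure.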
(In general: Formazan colour is commonly taken as a measure of viable cells.)

A further assay relates to JeKo-1 cells. The assay is described as follows: Antiproliferative effect, MTS cell viability assay, JeKo-1 cells. As to conditions: Homo sapiens; JeKo-1 mantle cell lymphoma cells; read-out: IC50 (anti-proliferation) JeKO-1 cells. It counts as cell-based. In short, it runs like this: as §1
In the next assay the target is BTK (Homo sapiens, UniProt Q06187). The assay is described as follows: Degradation of BTK protein in Namalwa cells (Western blot; DC50, Dmax). As to conditions: for DC50: BTK degradation, cell line not given. For orientation: A western blot detects proteins with antibodies after separation by electrophoresis.
Chain of BTK (Q06187 whole entry): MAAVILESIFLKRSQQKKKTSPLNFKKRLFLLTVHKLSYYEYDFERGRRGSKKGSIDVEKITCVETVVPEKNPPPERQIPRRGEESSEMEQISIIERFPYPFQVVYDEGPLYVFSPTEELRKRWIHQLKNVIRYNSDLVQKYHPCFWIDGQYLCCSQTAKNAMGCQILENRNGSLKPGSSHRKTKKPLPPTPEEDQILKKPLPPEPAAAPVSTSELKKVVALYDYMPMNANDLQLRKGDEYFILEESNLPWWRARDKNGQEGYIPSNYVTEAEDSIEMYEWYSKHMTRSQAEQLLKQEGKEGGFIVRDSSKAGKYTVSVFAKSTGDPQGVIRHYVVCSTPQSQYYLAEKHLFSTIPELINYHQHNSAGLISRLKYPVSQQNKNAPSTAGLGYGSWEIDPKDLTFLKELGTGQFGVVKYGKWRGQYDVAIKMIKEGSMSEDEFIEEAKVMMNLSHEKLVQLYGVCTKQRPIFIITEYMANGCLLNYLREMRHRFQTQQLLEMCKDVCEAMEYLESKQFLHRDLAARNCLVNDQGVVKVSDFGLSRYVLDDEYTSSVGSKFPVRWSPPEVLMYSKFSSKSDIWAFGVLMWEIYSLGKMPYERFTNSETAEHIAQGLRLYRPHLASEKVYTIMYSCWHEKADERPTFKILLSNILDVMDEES

Some results are limits rather than exact numbers.

For orientation: Dmax means the largest share of the target that was removed. Broadly, the DC50 is the midpoint of the concentration-degradation curve. A higher DC50 goes with a less potent degrader. Regarding `NC(=O)c1c(-c2ccc(Oc3ccccc3)cc2)nn2c1NCCC2C1CCN(CC2CCN(C(=O)N3CCN(CC4CCN(c5ccc6c(c5)CN(C5CCC(=O)NC5=O)C6=O)CC4)CC3)CC2)CC1` (centres unmarked) [Compound 372, 7-(1-((1-(4-((1-(2-(2,6-dioxopiperidin-3-yl)-1-oxoisoindolin-5-yl)piperidin-4-yl)methyl)piperazine-1-carbonyl)piperidin-4-yl)methyl)piperidin-4-yl)-2-(4-phenoxyphenyl)-4,5,6,7-tetrahydropyrazolo[1,5-a]pyrimidine-3-carboxamide], in the assay with Mino cells, the IC50 was in the range of 1 to 10 µM. For the same compound, the IC50 in the assay on JeKo-1 cells was less than 1 µM. For the same compound, at BTK, the Dmax is more than 90% and the DC50 lay in the range of 0.01 to 0.05 µM.
For the compound `NC(=O)c1c(-c2ccc(Oc3ccccc3)cc2)nn2c1NCCC2C1CCN(CC2CCN(C(=O)N3CCC(CC4CCN(c5ccc6c(c5)C(=O)N(C5CCC(=O)NC5=O)C6=O)CC4)CC3)CC2)CC1` (centres unmarked) [Compound 373, 7-(1-((1-(4-((1-(2-(2,6-dioxopiperidin-3-yl)-1,3-dioxoisoindolin-5-yl)piperidin-4-yl)methyl)piperidine-1-carbonyl)piperidin-4-yl)methyl)piperidin-4-yl)-2-(4-phenoxyphenyl)-4,5,6,7-tetrahydropyrazolo[1,5-a]pyrimidine-3-carboxamide], the IC50 with Mino cells is 1 to 10 µM; with JeKo-1 cells it was more than 10 µM. In addition, at BTK, the Dmax is more than 75%. Besides, the DC50 at BTK was 0.01 to 0.05 µM.
`NC(=O)c1c(-c2ccc(Oc3ccccc3)cc2)nn2c1NCCC2C1CCN(CC2CCN(C(=O)N3CCC(CC4CCN(c5ccc6c(c5)CN(C5CCC(=O)NC5=O)C6=O)CC4)CC3)CC2)CC1` (centres unmarked) [Compound 374, 7-(1-((1-(4-((1-(2-(2,6-dioxopiperidin-3-yl)-1-oxoisoindolin-5-yl)piperidin-4-yl)methyl)piperidine-1-carbonyl)piperidin-4-yl)methyl)piperidin-4-yl)-2-(4-phenoxyphenyl)-4,5,6,7-tetrahydropyrazolo[1,5-a]pyrimidine-3-carboxamide]: the IC50 was 1 to 10 µM in the assay on Mino cells and more than 10 µM in the assay with JeKo-1 cells. Besides, the Dmax at BTK is more than 75%. The compound also returned a DC50 on BTK of 0.01 to 0.05 µM.
As for `NC(=O)c1c(-c2ccc(Oc3ccccc3)cc2)nn2c1NCCC2C1CCN(CC2CCN(C(=O)N3CCC(CN4CCC(c5ccc6c(c5)C(=O)N(C5CCC(=O)NC5=O)C6=O)CC4)CC3)CC2)CC1` (centres unmarked) [Compound 375, 7-(1-((1-(4-((4-(2-(2,6-dioxopiperidin-3-yl)-1,3-dioxoisoindolin-5-yl)piperidin-1-yl)methyl)piperidine-1-carbonyl)piperidin-4-yl)methyl)piperidin-4-yl)-2-(4-phenoxyphenyl)-4,5,6,7-tetrahydropyrazolo[1,5-a]pyrimidine-3-carboxamide], the IC50 in the assay on Mino cells and in the assay on JeKo-1 cells was 1 to 10 µM each time. The Dmax at BTK is more than 75%. The compound also displayed a DC50 at BTK of 0.01 to 0.05 µM.
Regarding `NC(=O)c1c(-c2ccc(Oc3ccccc3)cc2)nn2c1NCCC2C1CCN(CC2CCN(C(=O)N3CCC(CN4CCC(c5ccc6c(c5)CN(C5CCC(=O)NC5=O)C6=O)CC4)CC3)CC2)CC1` (centres unmarked) [Compound 376, 7-(1-((1-(4-((4-(2-(2,6-dioxopiperidin-3-yl)-1-oxoisoindolin-5-yl)piperidin-1-yl)methyl)piperidine-1-carbonyl)piperidin-4-yl)methyl)piperidin-4-yl)-2-(4-phenoxyphenyl)-4,5,6,7-tetrahydropyrazolo[1,5-a]pyrimidine-3-carboxamide], in the assay on Mino cells, the IC50 lay in the range of 1 to 10 µM. For the same compound, in the assay on JeKo-1 cells, the IC50 lay in the range of 1 to 10 µM. On BTK, the maximal degradation (Dmax) was more than 75% and the DC50 was 0.01 to 0.05 µM.
Regarding `NC(=O)c1c(-c2ccc(Oc3ccccc3)cc2)nn2c1NCC[C@H]2C1CCN(C2CCN(C(=O)N3CCN(c4ccc5c(c4)CN(C4CCC(=O)NC4=O)C5=O)CC3)CC2)CC1` (stereo partly drawn) [Compound 378, (7S)-7-(1′-(4-(2-(2,6-dioxopiperidin-3-yl)-1-oxoisoindolin-5-yl)piperazine-1-carbonyl)-[1,4′-bipiperidin]-4-yl)-2-(4-phenoxyphenyl)-4,5,6,7-tetrahydropyrazolo[1,5-a]pyrimidine-3-carboxamide], the IC50 with Mino cells and in the assay with JeKo-1 cells was more than 10 µM each time. For the same compound, the Dmax on BTK was more than 50%. Also, on BTK, the DC50 is more than 0.05 µM.
As to `NC(=O)c1c(-c2ccc(Oc3ccccc3)cc2)nn2c1NCC[C@H]2C1CCN(C2CCN(C(=O)N3CCN(Cc4ccc5c(c4)C(=O)N(C4CCC(=O)NC4=O)C5=O)CC3)CC2)CC1` (stereo partly drawn) [Compound 379, (7S)-7-(1′-(4-((2-(2,6-dioxopiperidin-3-yl)-1,3-dioxoisoindolin-5-yl)methyl)piperazine-1-carbonyl)-[1,4′-bipiperidin]-4-yl)-2-(4-phenoxyphenyl)-4,5,6,7-tetrahydropyrazolo[1,5-a]pyrimidine-3-carboxamide], in the assay with Mino cells, the IC50 was more than 10 µM. Moreover, the IC50 with JeKo-1 cells is more than 10 µM. At BTK, the Dmax was more than 75% and the DC50 is more than 0.05 µM.
With `NC(=O)c1c(-c2ccc(Oc3ccccc3)cc2)nn2c1NCC[C@H]2C1CCN(C2CCN(C(=O)N3CCN(Cc4ccc5c(c4)CN(C4CCC(=O)NC4=O)C5=O)CC3)CC2)CC1` (stereo partly drawn) [Compound 380, (7S)-7-(1′-(4-((2-(2,6-dioxopiperidin-3-yl)-1-oxoisoindolin-5-yl)methyl)piperazine-1-carbonyl)-[1,4′-bipiperidin]-4-yl)-2-(4-phenoxyphenyl)-4,5,6,7-tetrahydropyrazolo[1,5-a]pyrimidine-3-carboxamide], the IC50 in the assay with Mino cells was 1 to 10 µM. Besides, in the assay with JeKo-1 cells, the IC50 was more than 10 µM. On BTK, this compound showed a Dmax of more than 75% and a DC50 of more than 0.05 µM.
As to `NC(=O)c1c(-c2ccc(Oc3ccccc3)cc2)nn2c1NCC[C@H]2C1CCN(C2CCN(C(=O)N3CCC(N4CCN(c5ccc6c(c5)C(=O)N(C5CCC(=O)NC5=O)C6=O)CC4)CC3)CC2)CC1` (stereo partly drawn) [Compound 381, (7S)-7-(1′-(4-(4-(2-(2,6-dioxopiperidin-3-yl)-1,3-dioxoisoindolin-5-yl)piperazin-1-yl)piperidine-1-carbonyl)-[1,4′-bipiperidin]-4-yl)-2-(4-phenoxyphenyl)-4,5,6,7-tetrahydropyrazolo[1,5-a]pyrimidine-3-carboxamide], in the assay on Mino cells, the IC50 is less than 1 µM. Moreover, the IC50 in the assay with JeKo-1 cells was less than 1 µM. Further, at BTK, the Dmax was more than 90% and the 50% degradation concentration (DC50) is less than 0.01 µM.
For `NC(=O)c1c(-c2ccc(Oc3ccccc3)cc2)nn2c1NCC[C@H]2C1CCN(C2CCN(C(=O)N3CCC(N4CCN(c5ccc6c(c5)CN(C5CCC(=O)NC5=O)C6=O)CC4)CC3)CC2)CC1` (stereo partly drawn) [Compound 382, (7S)-7-(1′-(4-(4-(2-(2,6-dioxopiperidin-3-yl)-1-oxoisoindolin-5-yl)piperazin-1-yl)piperidine-1-carbonyl)-[1,4′-bipiperidin]-4-yl)-2-(4-phenoxyphenyl)-4,5,6,7-tetrahydropyrazolo[1,5-a]pyrimidine-3-carboxamide], the IC50 with Mino cells was less than 1 µM. Moreover, in the assay on JeKo-1 cells, the IC50 is less than 1 µM. On BTK, the Dmax is more than 90% and the DC50 is less than 0.01 µM.
`NC(=O)c1c(-c2ccc(Oc3ccccc3)cc2)nn2c1NCC[C@H]2C1CCN(C2CCN(C(=O)N3CCC(C4CCN(c5ccc6c(c5)C(=O)N(C5CCC(=O)NC5=O)C6=O)CC4)CC3)CC2)CC1` (stereo partly drawn) [Compound 383, (7S)-7-(1′-(1′-(2-(2,6-dioxopiperidin-3-yl)-1,3-dioxoisoindolin-5-yl)-[4,4′-bipiperidine]-1-carbonyl)-[1,4′-bipiperidin]-4-yl)-2-(4-phenoxyphenyl)-4,5,6,7-tetrahydropyrazolo[1,5-a]pyrimidine-3-carboxamide]: the IC50 with Mino cells is less than 1 µM. Further, in the assay on JeKo-1 cells, the IC50 is less than 1 µM. On BTK, the Dmax is more than 90% and the DC50 is 0.01 to 0.05 µM.
`NC(=O)c1c(-c2ccc(Oc3ccccc3)cc2)nn2c1NCC[C@H]2C1CCN(C2CCN(C(=O)N3CCC(C4CCN(c5ccc6c(c5)CN(C5CCC(=O)NC5=O)C6=O)CC4)CC3)CC2)CC1` (stereo partly drawn) [Compound 384, (7S)-7-(1′-(1′-(2-(2,6-dioxopiperidin-3-yl)-1-oxoisoindolin-5-yl)-[4,4′-bipiperidine]-1-carbonyl)-[1,4′-bipiperidin]-4-yl)-2-(4-phenoxyphenyl)-4,5,6,7-tetrahydropyrazolo[1,5-a]pyrimidine-3-carboxamide]: in the assay with Mino cells, the IC50 was less than 1 µM. Moreover, the IC50 with JeKo-1 cells was in the range of 1 to 10 µM. Further, at BTK, the Dmax is more than 90% and the DC50 is less than 0.01 µM.
`NC(=O)c1c(-c2ccc(Oc3ccccc3)cc2)nn2c1NCC[C@H]2C1CCN(C2CCN(C(=O)N3CCN(C4CCN(c5ccc6c(c5)C(=O)N(C5CCC(=O)NC5=O)C6=O)CC4)CC3)CC2)CC1` (stereo partly drawn) [Compound 385, (7S)-7-(1′-(4-(1-(2-(2,6-dioxopiperidin-3-yl)-1,3-dioxoisoindolin-5-yl)piperidin-4-yl)piperazine-1-carbonyl)-[1,4′-bipiperidin]-4-yl)-2-(4-phenoxyphenyl)-4,5,6,7-tetrahydropyrazolo[1,5-a]pyrimidine-3-carboxamide]: in the assay on Mino cells, the IC50 is less than 1 µM. For the same compound, the IC50 in the assay on JeKo-1 cells fell in the range of 1 to 10 µM. On BTK, this compound came in with a Dmax of more than 90% and a DC50 of less than 0.01 µM.
The corresponding values for `NC(=O)c1c(-c2ccc(Oc3ccccc3)cc2)nn2c1NCC[C@H]2C1CCN(C2CCN(C(=O)N3CCN(C4CCN(c5ccc6c(c5)CN(C5CCC(=O)NC5=O)C6=O)CC4)CC3)CC2)CC1` (stereo partly drawn) [Compound 386, (7S)-7-(1′-(4-(1-(2-(2,6-dioxopiperidin-3-yl)-1-oxoisoindolin-5-yl)piperidin-4-yl)piperazine-1-carbonyl)-[1,4′-bipiperidin]-4-yl)-2-(4-phenoxyphenyl)-4,5,6,7-tetrahydropyrazolo[1,5-a]pyrimidine-3-carboxamide] are less than 1 µM, less than 1 µM, more than 90% and less than 0.01 µM.
